Results: patent publication US6800639B2, “Pharmaceutical combination for the treatment of cancer” (Shire BioChem Inc., priority 2001, dated 2004)

Key:
[1] = test system: MiaPaCa Human Pancreatic Tumor Xenograft; experiment: Troxacitabine ± Gemcitabine vs. MiaPaCa human pancreatic tumor xenograft; settings: for # of Toxic Deaths / Mice with Complete Shrinkage / Mice with Partial Shrinkage: n 10
Method: (§1) Female nude mice weighing approximately 20 g were implanted s.c. by trocar with fragments of human tumor harvested from s.c. growing tumors in nude mice hosts. When the tumors were approximately 58mg in size (12 days following inoculation), the animals were pair-matched into treatment and control groups. Each group contained 10 mice, each of which was ear-tagged and followed individually throughout the experiment. Initial doses were given on Day 1 following pair matching. […] Gemcitabine (Eli Lilly, Lot# 4MT16M) was administered intraperitoneally at 40 mg/kg and 80 mg/kg on a q3d×4 schedule.
(§2) Mice were weighed twice weekly, and tumor measurements were taken by calipers twice weekly, starting on Day 1. These tumor measurements were converted to mg tumor weight by a well-known formula, (W^2×L)/2. The experiment was terminated when the control group tumor size reached an average of 1 gram. Upon termination, the mice were weighed, sacrificed and their tumors were excised. The tumors were weighed, and the mean tumor weight per group was calculated.
(§3) Some drugs may cause tumor shrinkage in these tumor enograft models. With these agents, the final weight of a given tumor is subtracted from its own weight at the start of treatment on Day 1. This difference, divided by the initial tumor weight, is converted to percent shrinkage. The mean percent tumor shrinkage can be calculated from data from the mice in a group that experienced tumor regressions. If the tumor completely disappears in a mouse, it is considered a complete regression or complete tumor shrinkage.

[2] = test system: Panc-01 Human Pancreatic Tumor Xenograft; experiment: Troxacitabine ± Gemcitabine vs. Panc-01 human pancreatic tumor xenograft; settings: for Deaths / Mice with Complete Shrinkage / Mice with Partial Shrinkage: n = 10
Method: as §1, §2, §3

CCRF-CEM cells = experiment: MTT assay with CalcuSyn median-effect analysis, Troxacitabine/araC on CCRF-CEM cells; type: cell-based
From the text: The absorbance at 490 nm is directly proportional to the number of living cells in culture at a certain time point. […] Enz. Regulation 22, 1984, pp.27-55. […] Combinations of drugs were then generated around the IC50's of each drug to allow a constant ratio in order to determine if the combination was additive, synergistic or antagonistic. […] A CI below 1 is an indication of synergy, while a CI equal to 1 represents additivity, and a CI above 1 indicates antagonism.

[3] = Determination of maximum tolerated dose (MTD) in non-tumored mice; type: in vivo; settings: i.v. qd×5 schedule
[4] = test system: patients with refractory/relapsed leukemia; experiment: β-L OddC alone in patients with refractory/relapsed leukemia; type: in vivo, human; settings: single agent; 16 evaluable AML patients
Method: A study was conducted to investigate the activity of β-L OddC as a single agent in patients with refractory/relapsed leukemia. The study involved the treatment of patients with refractory or relapsed acute myeloid (AML) or lymphocytic (ALL) leukemia, myelodysplastic syndromes (MDS), or chronic myelogenous leukemia in blastic Phase (CML-BP). A total of 42 patients were treated in the study. As a result, a total of 39 patients were assessable for responses.

## Nc1ccn([C@@H]2O[C@H](CO)[C@@H](O)C2(F)F)c(=O)n1 [Gemcitabine, reference compound]
[1]; 40 mg/kg i.p., q3d × 4
  % Tumor Growth Inhibition: 37.3%
  Final Tumor Wt. (Mean ± SEM): 733.0 ± 98.7 mg
  # of Toxic Deaths: 0
  Mice with Complete Shrinkage: 0
  Mice with Partial Shrinkage: 0
[1]; 80 mg/kg i.p., q3d × 4
  % Tumor Growth Inhibition: 53.6%
  Final Tumor Wt. (Mean ± SEM): 553.8 ± 124.3 mg
  # of Toxic Deaths: 1
  Mice with Complete Shrinkage: 0
  Mice with Partial Shrinkage: 0
[2]; 40 mg/kg i.p., q3d × 4
  % Tumor Growth Inhibition: 49.8%
  Final Tumor Wt. (Mean ± SEM): 457.8 ± 113.9 mg
  Deaths: 0
  Mice with Complete Shrinkage: 0
  Mice with Partial Shrinkage: 0
[2]; 80 mg/kg i.p., q3d × 4
  % Tumor Growth Inhibition: 74.3%
  Final Tumor Wt. (Mean ± SEM): 262.2 ± 67.7 mg
  Deaths: 0
  Mice with Complete Shrinkage: 0
  Mice with Partial Shrinkage: 0

## Nc1ccn([C@@H]2CO[C@H](CO)O2)c(=O)n1 [Troxacitabine, (−)-β-L-Dioxolane-Cytidine]
CCRF-CEM cells; Troxacitabine 20 nM, 72 h continuous exposure
  % Toxicity: 0%
CCRF-CEM cells; Troxacitabine 31 nM, 2 h exposure, MTT at 72 hr
  % Toxicity: 3 ± 3%
CCRF-CEM cells; Troxacitabine 62 nM, 2 h exposure, MTT at 72 hr
  % Toxicity: 12 ± 7%
CCRF-CEM cells; Troxacitabine 100 nM, 72 h continuous exposure
  % Toxicity: 28 ± 5%
CCRF-CEM cells; Troxacitabine 125 nM, 2 h exposure, MTT at 72 hr
  % Toxicity: 11 ± 2%
CCRF-CEM cells; Troxacitabine 250 nM, 2 h exposure, MTT at 72 hr
  % Toxicity: 24 ± 3%
CCRF-CEM cells; Troxacitabine 500 nM, 2 h exposure, MTT at 72 hr
  % Toxicity: 34 ± 6%
CCRF-CEM cells; Troxacitabine 500 nM, 72 h continuous exposure
  % Toxicity: 65 ± 2%
CCRF-CEM cells; Troxacitabine 2500 nM, 72 h continuous exposure
  % Toxicity: 90 ± 2%
CCRF-CEM cells; Troxacitabine 12500 nM, 72 h continuous exposure
  % Toxicity: 98 ± 1%
[3]
  maximum tolerated dose: greater than 25 mg/kg
[1]; 10 mg/kg i.v., qd × 5
  % Tumor Growth Inhibition: 23.9%
  Final Tumor Wt. (Mean ± SEM): 872.7 ± 171.1 mg
  # of Toxic Deaths: 3
  Mice with Complete Shrinkage: 0
  Mice with Partial Shrinkage: 0
[1]; 25 mg/kg i.v., qd × 5
  % Tumor Growth Inhibition: 29.7%
  Final Tumor Wt. (Mean ± SEM): 813.4 ± 57.9 mg
  # of Toxic Deaths: 0
  Mice with Complete Shrinkage: 0
  Mice with Partial Shrinkage: 0
[2]; 10 mg/kg i.v., qd × 5
  Final Tumor Wt. (Mean ± SEM): 11.1 ± 2.1 mg
  Mean % Tumor Shrinkage: 77.5%
  Deaths: 0
  Mice with Complete Shrinkage: 1
  Mice with Partial Shrinkage: 9
[2]; 25 mg/kg i.v., qd × 5
  Final Tumor Wt. (Mean ± SEM): 12.5 ± 1.9 mg
  Mean % Tumor Shrinkage: 72.6%
  Deaths: 0
  Mice with Complete Shrinkage: 1
  Mice with Partial Shrinkage: 9
[4]
  complete remissions: 2
  partial remissions: 1
  remission rate (complete + partial): 18%
